Data set [1] in a line: in vitro. As to conditions: human, plasma diluted in PBS (1:2 v/v).
Description: Stability in human plasma in PBS (1:2 v/v) assessed as intact compound at 37 degC measured after 72 hrs
Data set [2] is described as follows: in vitro. As to conditions: human, plasma diluted in PBS (1:2 v/v). This is another data set of the same source.
Description: Stability in human plasma in PBS (1:2 v/v) assessed as intact compound at 37 degC measured after 24 hrs
Data set [3] has as its target T1, Protein deacetylase HDAC6 (Homo sapiens) (UniProt Q9UBN7).
T1 sequence (whole entry): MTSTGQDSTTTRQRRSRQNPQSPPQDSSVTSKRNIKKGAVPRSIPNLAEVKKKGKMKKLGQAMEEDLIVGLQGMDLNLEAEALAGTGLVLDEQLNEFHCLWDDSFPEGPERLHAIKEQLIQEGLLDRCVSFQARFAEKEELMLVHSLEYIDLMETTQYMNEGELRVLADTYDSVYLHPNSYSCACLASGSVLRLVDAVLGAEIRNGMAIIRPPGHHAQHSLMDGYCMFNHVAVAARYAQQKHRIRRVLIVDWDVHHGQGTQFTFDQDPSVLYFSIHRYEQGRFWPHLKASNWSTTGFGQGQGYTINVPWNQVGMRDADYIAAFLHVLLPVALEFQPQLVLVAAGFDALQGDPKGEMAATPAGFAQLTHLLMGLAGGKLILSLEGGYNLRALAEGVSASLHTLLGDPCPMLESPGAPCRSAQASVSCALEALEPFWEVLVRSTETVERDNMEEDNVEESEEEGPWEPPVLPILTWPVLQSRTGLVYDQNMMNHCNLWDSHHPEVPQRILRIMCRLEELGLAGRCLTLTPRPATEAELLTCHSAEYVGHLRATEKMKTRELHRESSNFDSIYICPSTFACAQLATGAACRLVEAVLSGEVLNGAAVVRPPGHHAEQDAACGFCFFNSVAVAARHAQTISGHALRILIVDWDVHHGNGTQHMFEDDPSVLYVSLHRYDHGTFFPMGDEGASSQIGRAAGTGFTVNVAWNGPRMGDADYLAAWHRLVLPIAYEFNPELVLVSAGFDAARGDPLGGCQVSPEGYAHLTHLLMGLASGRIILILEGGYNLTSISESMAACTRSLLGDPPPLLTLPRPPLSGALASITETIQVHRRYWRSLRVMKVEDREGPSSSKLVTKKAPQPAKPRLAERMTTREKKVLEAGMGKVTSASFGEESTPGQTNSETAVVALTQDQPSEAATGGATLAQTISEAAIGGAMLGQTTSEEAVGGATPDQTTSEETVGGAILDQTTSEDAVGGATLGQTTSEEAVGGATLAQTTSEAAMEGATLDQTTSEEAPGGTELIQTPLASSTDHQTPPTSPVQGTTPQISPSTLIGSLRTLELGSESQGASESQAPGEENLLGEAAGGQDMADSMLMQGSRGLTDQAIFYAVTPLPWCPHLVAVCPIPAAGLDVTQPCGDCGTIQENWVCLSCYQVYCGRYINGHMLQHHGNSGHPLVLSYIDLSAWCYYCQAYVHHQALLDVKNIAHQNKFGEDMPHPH
As to conditions: MV4-11, dose 500.0 nM, time 24.0 hrs.

The target of data set [4] is T1, Protein deacetylase HDAC6 (Homo sapiens). As to conditions: MV4-11, dose 50.0 nM, time 24.0 hrs.
Data set [5] shares this target. As to conditions: MV4-11, dose 5.0 nM, time 24.0 hrs.
The next data set addresses Histone deacetylase 3 (Homo sapiens, UniProt O15379).
Data set [6] concerns the target T2, Protein deacetylase HDAC6 (Homo sapiens, UniProt Q9UBN7).
T2 sequence (Q9UBN7 whole entry): T1 sequence (whole entry)
Put plainly: Inhibition of purified recombinant human HDAC6 assessed as inhibition constant using residues 379-382 (RHKK(Ac)AMC) fluorogenic substrate p53 fluorogenic peptide as substrate measured after 90 mins by fluorescence assay.

The target of a further data set is T3, Histone deacetylase 8 (Homo sapiens, UniProt Q9BY41).
T3 sequence (Q9BY41 whole entry): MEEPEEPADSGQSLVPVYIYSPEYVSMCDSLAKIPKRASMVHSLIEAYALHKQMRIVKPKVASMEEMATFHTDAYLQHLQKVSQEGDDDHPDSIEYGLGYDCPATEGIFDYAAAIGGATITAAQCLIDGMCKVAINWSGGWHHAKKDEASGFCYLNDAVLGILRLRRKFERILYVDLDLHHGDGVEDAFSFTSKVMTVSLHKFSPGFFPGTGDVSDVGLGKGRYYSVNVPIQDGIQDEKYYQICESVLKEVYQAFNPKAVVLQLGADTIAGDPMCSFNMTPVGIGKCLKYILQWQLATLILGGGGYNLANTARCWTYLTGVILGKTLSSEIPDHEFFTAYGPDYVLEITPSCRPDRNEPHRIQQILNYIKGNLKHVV
The data set is described as follows: Inhibition of purified recombinant human HDAC8 assessed as inhibition constant using residues 379-382 (RHKK(Ac)AMC) fluorogenic substrate p53 fluorogenic peptide as substrate measured after 90 mins by fluorescence assay.

Data set [7] addresses T4, Polyamine deacetylase HDAC10 (Homo sapiens, UniProt Q969S8).
T4 sequence (Q969S8 whole entry): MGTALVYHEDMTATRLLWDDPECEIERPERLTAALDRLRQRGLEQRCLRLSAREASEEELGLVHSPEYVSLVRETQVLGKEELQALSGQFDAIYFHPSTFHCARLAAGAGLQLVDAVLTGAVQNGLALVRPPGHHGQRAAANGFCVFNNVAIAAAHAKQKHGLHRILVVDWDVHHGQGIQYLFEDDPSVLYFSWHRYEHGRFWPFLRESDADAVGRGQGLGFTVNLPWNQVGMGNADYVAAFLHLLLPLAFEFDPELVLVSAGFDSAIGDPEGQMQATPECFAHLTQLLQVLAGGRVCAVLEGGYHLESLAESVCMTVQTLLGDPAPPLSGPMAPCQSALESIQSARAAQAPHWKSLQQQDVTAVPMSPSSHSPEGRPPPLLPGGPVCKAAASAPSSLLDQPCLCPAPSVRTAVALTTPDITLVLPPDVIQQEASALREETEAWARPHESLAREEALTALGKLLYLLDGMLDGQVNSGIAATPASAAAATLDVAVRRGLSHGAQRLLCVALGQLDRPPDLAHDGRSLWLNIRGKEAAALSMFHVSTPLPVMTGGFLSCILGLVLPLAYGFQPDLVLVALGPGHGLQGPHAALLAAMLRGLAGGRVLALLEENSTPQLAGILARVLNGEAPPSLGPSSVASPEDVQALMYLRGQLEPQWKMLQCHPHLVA
The data set is described as follows: Inhibition of purified recombinant human HDAC10 assessed as inhibition constant using residues 379-382 (RHKK(Ac)AMC) fluorogenic substrate p53 fluorogenic peptide as substrate measured after 90 mins by fluorescence assay.

Another data set deals with MV4-11. The data set is described as follows: Antiproliferative activity against human MV4-11 cells assessed as cell viability by measuring amount of ATP after 72 hrs incubation by CellTiteer-Glo Cell viability assay. As to conditions: MV4-11, 72 h.

pEC50, pKi: −log10 of the molar value. The source made the active and inactive calls. The calls are words filed in the database; no cut-off is given here.

Chain of Histone deacetylase 3 (O15379 whole entry): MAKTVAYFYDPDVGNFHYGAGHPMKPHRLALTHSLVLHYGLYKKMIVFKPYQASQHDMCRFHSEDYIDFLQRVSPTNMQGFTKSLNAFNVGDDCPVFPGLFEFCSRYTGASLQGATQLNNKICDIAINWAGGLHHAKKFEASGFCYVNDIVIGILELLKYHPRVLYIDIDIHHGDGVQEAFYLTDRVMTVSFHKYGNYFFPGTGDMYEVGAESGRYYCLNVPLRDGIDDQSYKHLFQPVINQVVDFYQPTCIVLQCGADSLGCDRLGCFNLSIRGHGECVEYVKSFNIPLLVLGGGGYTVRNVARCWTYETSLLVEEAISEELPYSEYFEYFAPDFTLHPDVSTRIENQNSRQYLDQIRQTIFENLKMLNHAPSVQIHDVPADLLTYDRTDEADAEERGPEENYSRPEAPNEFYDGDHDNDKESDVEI
Description for Histone deacetylase 3: Inhibition of purified recombinant human HDAC3 assessed as inhibition constant using fluorogenic substrate ZMAL (Z-Lys(Ac)-AMC as substrate measured after 90 mins by fluorescence microplate reader

In “in vitro [1]”, `CN1C(=O)N2Cc3c(c4cc(OCCN5CCOCC5)ccc4n3Cc3ccc(C(=O)O)cc3)[C@](C)(C2)C1=O` yielded a share remaining at 72 h of 56.3%. The amount remaining at 24 h in the data set “in vitro [2]” amounted to 91.4%.
As for `CN1C(=O)C2CN(Cc3c2c2ccccc2n3Cc2ccc(C(=O)NO)cc2)C1=O` (stereo not given), the inhibition entry in data set [3], in data set [4] and in data set [5] was “inactive” each time.
`CN1C(=O)N2Cc3c(c4cc(OCCN5CCOCC5)ccc4n3Cc3ccc(C(=O)NO)cc3)C(C3CCCCC3)(C2)C1=O` (racemic): the values for the negative-log Ki (pKi) (on Histone deacetylase 3; in data set [6]; on Histone deacetylase 8) were 6.17, 8.90 and 5.96, respectively.
Take `CN1C(=O)N2Cc3c(c4cc(O)ccc4n3Cc3ccc(C(=O)NO)cc3)C(c3cccs3)(C2)C1=O` (racemic): the negative logarithm of the Ki (pKi) on Histone deacetylase 3 was 6.93; in [6], 9.51.
For `CN1C(=O)N2Cc3c(c4cc(OCCN5CCOCC5)ccc4n3Cc3ccc(C(=O)NO)cc3)C(c3ccco3)(C2)C1=O` (racemic), in that order: 6.42 and 9.36.
Take `Cn1cc(CNCC2CCN(c3ncc(C(=O)NO)cn3)CC2)c2ccccc21` [QUISINOSTAT]: the negative logarithm of the Ki (pKi) in data set [7] is 8.83.
As to `O=C(CCCCCCNC(=O)c1cnc(N(c2ccccc2)c2ccccc2)nc1)NO` [RICOLINOSTAT], the pEC50 in the data set on MV4-11 was 6.15.
On the same count and under the same terms, for `CC(/C=C/C(=O)NO)=C\[C@@H](C)C(=O)c1ccc(N(C)C)cc1` [TRICHOSTATIN] the value was 4.82.

As a reminder, the amount remaining is the share of the starting amount still present when the sample was taken. In general, pKi refers to the negative decadic logarithm of the Ki, by convention in mol/L. A word on the pEC50: it is the negative decadic logarithm of the EC50, by convention in mol/L.

Source of the values: ChEMBL document CHEMBL5608209, “Biological and structural investigation of tetrahydro-β-carboline-based selective HDAC6 inhibitors with improved stability” (Eur J Med Chem, 2024).
